Results taken from patent US12102672B2, “Immunogenic sequences from a phage tail length tape measure protein, bacteria expressing the same and their use in treating a cancer” (INSTITUT GUSTAVE ROUSSY, priority 2017, dated 2024).

Legend:
[1] = test system: IFNg producing CD8^+ T (Tc1) cells; settings: naïve mice; cited from earlier work
[2] = test system: pTh17 cells; assay: Induction of pTh17 cells in secondary lymphoid organs of CTX-treated animals; type: in vivo
From the text: The reasons for these differences were however unknown, and the inventors pursued their research to identify the factor(s) responsible for the immunogenic properties of the murine strain EH13144 and the human clones IGR4, IGR7 and IGR11, in order to derive new molecules or microorganisms useful in the treatment of cancer.

[3] = test system: MCA205 cells with PSMB4 GSFARFRNI knock-in; assay: Growth of Psmb4 knock-in MCA205 tumors under CTX +/- E. hirae 13144; type: in vivo, mice; settings: L→F exchange in position 3, versus WT MCA205
[4] = test system: autologous CD4+ T cells or CD8+ T cells; assay: Blood T cell responses of breast cancer patients to monocytes stimulated with bacteria (IFN-γ, IL-10 release); type: cell-based, human
Method: FIG. 22. T cell responses against commensals in blood from breast cancer patients at diagnosis priori to chemotherapy. Autologous monocytes harvested from breast cancer patients were stimulated with distinct bacterial spp. and then incubated with autologous CD4+ T cells or CD8+ T cells to monitor IFN-γ and IL-10 release. (A) TH1/Tc1/Tr1 immune responses to E. hirae 13144. […] (B) TH1/Tc1/Tr1 immune responses to E. coli or TCR cross-linking. BC women display memory T cell responses against E. coli and respond to TCR cross-linking.

[5] = test system: E. gallinarum; assay: Phage transmission from E. hirae to E. gallinarum in small intestine enteroids; parameters: species or system Enterococcus gallinarum; settings: 1:1 ratio E. hirae / E. gallinarum on enteroids
From the text: (§1) . […] Also refer to FIG. 39.
Temperate bacteriophages are bacterial viruses that transfer virulence, antimicrobial resistance genes, and immunogenic sequences to new bacterial hosts (Weinbauer, 2004). The TMP protein, which contains a variable number of tandem repeats with highly conserved tryptophan and phenylalanine residues at fixed positions is encoded by the genome of Siphoviridae phages (Belcaid et al., 2011; Piuri and Hatfull, 2006). To analyze the capacity of E. hirae 13144 to contagiously disseminate the phage TMP sequence, we performed culturomic analyses of the ileal content from C57BL/6 mice subjected to oral gavage with E. hirae 13144 and systemic CTX therapy (FIG. 30C). […] Of note, none of the 90 colonies (mostly of E. gallinarum) isolated from naive mice harbored the TMP sequence (FIG. 39). Moreover, CTX plays a role in eliminating the E. gallinarum, allowing the niching and/or colonization of E. hirae in the small intestine, as shown in vitro in enteroid systems or in PCR of the ileal content (FIG. 30G and not shown). Importantly, incubation of small intestine enteroids with a balanced 1:1 ratio of E. hirae or E. gallinarum harbouring or not the phage respectively, lead to the transmission of the infectious/lytic phage to E. gallinarum by E. hirae in 9% of colonies at 6 hrs and 26% at 20 hrs (FIG. 30G).

[6] = test system: ileal bacterial colonies; assay: Culturomics and TMP PCR of ileal content after gavage with E. hirae 13144 and CTX; type: in vivo, C57BL/6 mice; settings: 76 colonies, oral gavage + systemic CTX
From the text: as §1
PCR amplification of the TMP sequence (refer to FIG. 36) in each colony growing after seeding of ileal content in aerobic conditions to isolate Gram+ bacteria. A photograph of each agarose electrophoresis gel is shown for each animal. A depicts the results in 5 naive mice and B depicts the findings after CTX+oral gavage with the phage encoding bacterium. Each vertical lane corresponds to one bacterium identified in MALDI-TOF. Initials are detailed in the lower part of panel A. The positive control (Ctl+) represents the DNA of E. hirae 13144.
We cultivated the stools (of patients) or ileal material (mice) after several dilutions in aerobic conditions and permissive medium to allow isolation of enterococci colonies (according to a procedure described in (Samb-Ba et al., 2014)). We performed a PCR of the TMP sequence in each single cultivable Enterococcus colony. One colony was put in 100 μl of nuclease-free water to release the bacterial DNA and PCR was performed with 5 μl of DNA, 12.5 μl of PCR master mix (Thermoscientific), 5 μl of nuclease-free water and 1.25 μl of each TMP primers (20 µM). […] The sequence of primers are: forward 5′-[…]-3′ ID No: reverse 5′-(SEQ 191) and […]-3′ (SEQ ID No: 192) (amplicon 1026 bp). […]

Substance	immunogenic and oncomicrobiotic properties of the isolate [1]	capacity to induce pTh17 cells in secondary lymphoid organs [2]	anticancer effect on PSMB4 knock-in (GSFARFRNI) MCA205 tumors [3]	BC patients who developed IL-10 producing memory CD4+ T cell responses ([4]; FIG. 22A) [%]	BC patients with CD4+ T cells exhibiting no reactivity to pulsed monocytes ([4]; FIG. 22A) [%]	BC patients at diagnosis exhibiting a blood TH1/Tc1 immune response ([4]; prior to chemotherapy)	colonies of E. gallinarum with transmitted phage ([5]; 6 hrs) [%]	colonies of E. gallinarum with transmitted phage ([5]; 20 hrs) [%]	in vivo transduction of by-stander Enterococci by the phage [6]
Enterococcus hirae 708 [Peptide 708, reference compound]	induced IFNg producing CD8^+ T (Tc1) cells	–	–	–	–	–	–	–	–
Enterococcus hirae strain 13144 [Peptide 13144]	–	significant capacity to induce pTh17 cells	drastically blunted the anticancer effects	52	32	Less than 20%	9	26	E. gallinarum was the only by-stander Enterococci transduced
